Measurements reported in US9107415B2, “2-(substituted-phenyl)-cyclopentane-1,3-dione compounds, and derivatives thereof” (Syngenta Limited, priority 2011, dated 2015).

Key:
Format in all cases: in vivo
[1] = tested on: Alopecurus myosuroides (ALOMY); experiment: Biological Example 1 glasshouse screen, post-emergence herbicidal activity; settings: 312 h, application rate 250 g/ha, evaluated after 13 days, read-out: ALOMY percentage phytotoxicity
Procedure, shortened: (§1)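 Potted test species received a foliar or soil spray of active ingredient in acetone/water (50:50), 0.5% Tween 20, at 1 or 8 days after sowing for pre- and post-emergence respectively. Percentage phytotoxicity was assessed by eye after 13 days.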

[2] = tested on: Echinochloa crus-galli (ECHCG); experiment: as above; settings: 312 h, application rate 250 g/ha, evaluated after 13 days, read-out: ECHCG percentage phytotoxicity
Procedure, shortened: as §1

Avena fatua (AVEFA) = experiment: as above; settings: 312 h, application rate 250 g/ha, evaluated after 13 days, read-out: AVEFA percentage phytotoxicity
Procedure, shortened: (§2)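 Pots in a glasshouse (24/16°C day/night, 14 h light, 65% humidity) were sprayed one day after sowing (pre-emergence) or after 8 days (post-emergence), using acetone/water (50:50) with 0.5% Tween 20. Phytotoxicity was scored visually as % damage (0-100) 13 days after application.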

Lolium perenne (LOLPE) = experiment: as above; settings: 312 h, application rate 250 g/ha, evaluated after 13 days, read-out: LOLPE percentage phytotoxicity
Procedure, shortened: as §2

[3] = tested on: Triticum aestivum, wheat (TRZAW); experiment: Biological Example 3 glasshouse screen, post-emergence, phytotoxicity on wheat; settings: 360 h, 15 DAA, no safener, read-out: TRZAW percentage phytotoxicity; for pest or weed control at 30 g/ha: application rate 30 g/ha; for pest or weed control at 60 g/ha: application rate 60 g/ha
Procedure, shortened: (§3)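 Selectivity screen without safener: 12-day-old plants sprayed post-emergence with acetone/IF50-formulated compound plus 0.2% v/v X-77, kept in glasshouse, visually rated for % injury 15 days after application.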

[4] = tested on: Alopecurus myosuroides, blackgrass (ALOMY); experiment: Biological Example 3 glasshouse screen, post-emergence herbicidal activity; settings: 360 h, 15 DAA, no safener, read-out: ALOMY percentage phytotoxicity; for pest or weed control at 30 g/ha: application rate 30 g/ha; for pest or weed control at 60 g/ha: application rate 60 g/ha
Procedure, shortened: as §3

[5] = tested on: Avena fatua, wild oats (AVEFA); experiment: as above; settings: 360 h, 15 DAA, no safener, read-out: AVEFA percentage phytotoxicity; for pest or weed control at 30 g/ha: application rate 30 g/ha; for pest or weed control at 60 g/ha: application rate 60 g/ha
Procedure, shortened: as §3

[6] = tested on: Echinochloa crus galli, barnyardgrass (ECHCG); experiment: as above; settings: 360 h, 15 DAA, no safener, read-out: ECHCG percentage phytotoxicity; for pest or weed control at 30 g/ha: application rate 30 g/ha; for pest or weed control at 60 g/ha: application rate 60 g/ha
Procedure, shortened: as §3

Winter Barley “Suzuka” = experiment: Biological Example 4B post-emergence phytotoxicity on cereal crops; settings: 14 DAA, technical compound in IF50 + Adigor, mean of two
Protocol: (§4) Seeds of a variety of test species are sown in standard soil in pots. After cultivation for 14 days under controlled conditions in a glasshouse (at 22/16°C., day/night; 16 hours light; 65% humidity), the plants are sprayed with an aqueous spray solution derived from the formulation of the technical active ingredient dissolved in acetone plus IF50 containing
(§5) 10.56 wt % Emulsogen™EL (castor oil ethoxylate, CAS Registry number 61791-12-6)
(§6) 42.22 wt % N-Methyl pyrrolidone
(§7) 42.22 wt % dipropylene glycol monoethyl ether
(§8) at a 1:20 ratio of (technical active ingredient:IF50). The adjuvant Adigor™(an adjuvant containing inter alia methylated rapeseed oil, e.g. available from Syngenta) is added to form a 0.5% v/v solution. The test plants are then grown on under controlled conditions in the glasshouse (at 22/16°C., day/night; 16 hours light; 65% humidity) and are watered twice daily. After 14 days the test is evaluated (100%=total damage to plant; 0%=no damage to plant).
(§9) […] Herbicidal activity (phytotoxicity) is evaluated visually, and an assessed percentage phytotoxicity score is given for each herbicidal application on each plant species (with 100%=total damage to plant; 0%=no damage to plant). Two repetitions are made for each experiment, and the mean herbicidal activity (phytotoxicity) data is reported.

Winter Wheat “Hereward” = experiment: as above; settings: 14 DAA, technical compound in IF50 + Adigor, mean of two
Protocol: as §4, §5, §6, §7, §8, §9

[7] = 30 g/ha, cloquintocet-mexyl 50 g/ha
[8] = 60 g/ha, cloquintocet-mexyl 0 g/ha
[9] = 60 g/ha, cloquintocet-mexyl 50 g/ha
[10] = 15 g/ha, cloquintocet-mexyl 50 g/ha

SMILES | pest or weed control at 250 g/ha [1] [%] | pest or weed control at 250 g/ha [2] [%] | pest or weed control at 250 g/ha (Avena fatua (AVEFA)) [%] | pest or weed control at 250 g/ha (Lolium perenne (LOLPE)) [%] | pest or weed control at 30 g/ha [3] [%] | pest or weed control at 30 g/ha [4] [%] | pest or weed control at 30 g/ha [5] [%] | pest or weed control at 30 g/ha [6] [%] | Winter Barley “Suzuka” phytotoxicity (%) (Winter Barley “Suzuka”; [7]) | Winter Barley “Suzuka” phytotoxicity (%) (Winter Barley “Suzuka”; [8]) | Winter Barley “Suzuka” phytotoxicity (%) (Winter Barley “Suzuka”; [9]) | Winter Wheat “Hereward” phytotoxicity (%) (Winter Wheat “Hereward”; [7]) | Winter Wheat “Hereward” phytotoxicity (%) (Winter Wheat “Hereward”; [8]) | Winter Wheat “Hereward” phytotoxicity (%) (Winter Wheat “Hereward”; [9]) | pest or weed control at 60 g/ha [3] [%] | pest or weed control at 60 g/ha [4] [%] | pest or weed control at 60 g/ha [5] [%] | pest or weed control at 60 g/ha [6] [%] | further results
CC#Cc1cc(C)c(C2=C(O)CC(Cc3ccc(C)cn3)C2=O)c(C)c1 (stereo not shown) [Compound A-8] | 100 | 100 | 100 | 100 | 40 | 80 | 70 | 70 | 9 | 73 | 60 | 13 | 63 | 45 |  |  |  |  | 
CC#Cc1cc(C)c(C2=C(O)CC(Cc3ccc(F)cn3)C2=O)c(C)c1 (stereo not shown) [Compound A-11] | 100 | 100 | 90 | 100 | 40 | 90 | 70 | 100 | 8 | 68 | 33 | 3 | 55 | 8 | 50 | 100 | 100 | 100 | 
CC#Cc1cc(C)c(C2=C(O)CC(Cc3ccc(C#N)cn3)C2=O)c(C)c1 (stereo not shown) [Compound A-14] | 100 | 100 | 90 | 100 | 20 | 70 | 0 | 90 | 45 | 97 | 93 | 30 | 80 | 78 | 40 | 90 | 60 | 90 | 
CC#Cc1cc(C)c(C2C(=O)CC(Cc3ccn(C)n3)C2=O)c(C)c1 (stereo not shown) [Compound A-19] | 100 | 100 | 100 | 100 | 70 | 100 | 90 | 100 | 55 | 97 | 95 | 65 | 89 | 75 |  |  |  |  | pest or weed control at 15 g/ha ([3]; application rate 15 g/ha): 20%; pest or weed control at 15 g/ha ([4]; application rate 15 g/ha): 80%; pest or weed control at 15 g/ha ([5]; application rate 15 g/ha): 40%; pest or weed control at 15 g/ha ([6]; application rate 15 g/ha): 70%; Winter Barley “Suzuka” phytotoxicity (%) (Winter Barley “Suzuka”; [10]): 3%; Winter Wheat “Hereward” phytotoxicity (%) (Winter Wheat “Hereward”; [10]): 58%
